Measured values as given in patent publication US20220226349A1, “TOPICAL NEUROSTEROID FORMULATIONS” (Arizona Board of Regents on Behalf of the University of …, priority 2019, published 2022).
Converted amounts (≈) assume the structure as drawn. Read-outs that look alike come from different tables or passages of the source.

Legend:
[1] = Saturated solubility of Allo in oils; assay type: physicochemical; conditions: oil or lipid, thermodynamic from solid, room temperature, mean ± SD, n=3
Description: The solubility of Allo was determined in CAPMUL® MCM EP/NF (monodiglyceride of medium chain fatty acids, commercially available from Abitec Corporation (Columbus, Ohio), CAS Number 91744-32-0, or 26402-22-2, and 26402-26-6), isopropyl myristate, and oleic acid, by adding an excess amount of Allo to 1 mL of each oil in a glass vial. The vial was rocked for 72 h at room temperature. The excessive amount of Allo was filtered through a syringe membrane filter (0.2 μm). The amount of Allo dissolved in each oil was determined using HPLC.
An HPLC analytical method was developed by employing the SHIMADZU LC2010A HT for in vitro and ex vivo evaluation of Allo from microemulsions (MEs). Chromatographic separation was achieved using a PHENOMENEX® KINETEX® Phenyl-hexyl 2.6 μm reverse-phase (150×4.6 mm) column. The mobile phase was a mixture of 0.1% acetic acid in water and methanol, 20:80 (v/v) and flowed at 0.4 ml/min for 15 min The injection volume was 10 μl and the UV detection wavelength was 206 nm. A standard curve was constructed at the concentration range of 7.8-1,000

[2] = tested on: HaCaT (human skin) cell line; assay: In vitro cell viability (resazurin assay) after treatment of Allo, HaCaT; assay type: cell-based; conditions: 72 h
Description: (§1) Cell viability was evaluated in human skin (HaCaT)cell line by performing a resazurin assay after the treatment of Allo. Resazurin is a cell permeable redox indicator, and viable cells with active metabolism can reduce resazurin into resorufin, which is fluorescent (Riss et al., Cell Viability Assays, in Assay Guidance Manual, 2016). The HaCaT cells were grown in optimized Dubelco's Modified Eagle's medium (DMEM) (containing 2 mM of L-glutamine, 2 mM of sodium pyruvate, 4500 mg/L of glucose, and 1500 mg/L of sodium bicarbonate) supplemented with 10% fetal bovine serum (FBS). The TR 146 cells were grown in Ham's F12 medium supplemented with 10% FBS, 1% penicillin-streptomycin, and 0.2% L-Glutamine The RPMI 2650 cells were grown in Eagle's Minimum Essential medium (EMEM) supplemented with 10% FBS, 1% penicillin-streptomycin, and 0.2% amphotericin […]. Cells were plated in a 96-well plate at a density of 5,000 cells per each well (100 μl) and incubated at 37° C. and 5% CO2 for 48 h. Allo was prepared in cell culture media with the addition of 1% (v/v) ethanol to aid Allo solubility. The final concentration range of Allo treated to the cells was 0.001-10 μM. […] The cell viability was measured using Synergy H1 Multi-Mode Reader (BioTek Instruments Inc., Winooski, Vt.) at the excitation wavelength of 544 nm and emission wavelength of 590 nm.

[3] = tested on: TR 146 (human buccal) cell line; assay: In vitro cell viability (resazurin assay) after treatment of Allo, TR 146; assay type: cell-based; conditions: TR 146, Allo 0.001-10 μM, 72 h
Description: as §1

[4] = tested on: RPMI 2650 (human nasal) cell line; assay: In vitro cell viability (resazurin assay) after treatment of Allo, RPMI 2650; assay type: cell-based; conditions: RPMI 2650, Allo 0.001-10 μM, 72 h
Description: as §1

[5] = Saturated solubility of Allo in receptor media; assay type: physicochemical; conditions: aqueous with cosolvent or surfactant or cyclodextrin, thermodynamic from solid, 32° C., n=3, read-out: Solubility of Allo in receptor medium
Description: To select a receptor medium placed in the receptor compartment of the Franz chamber, the saturated solubilities of Allo in various media were determined. PBS at pH 7.4 has been commonly used to mimic the physiological condition. […] An excessive amount of Allo was added to 1 ml of the following media: (1) 10% (w/v) 2-hydroxypropyl-β-cyclodextrin (HβCD), (2) 40% (v/v) isopropyl alcohol (IPA), (3) 30% (v/v) CREMOPHOR EL®, and (4) 20% (v/v) IPA and 25% (v/v) CREMOPHOR EL®. The solutions were kept under constant magnetic stirring at 600 rpm for 24 h and placed in an incubator at 32° C. After 24 h, the excessive amount of Allo was filtered through a 0.2 μm syringe membrane and the filtered solution was injected into the HPLC for analysis.

SMILES: CC(=O)[C@H]1CC[C@H]2[C@@H]3CC[C@H]4C[C@H](O)CC[C@]4(C)[C@H]3CC[C@]12C [Allo, 3α-hydroxy-5α-pregnan-20-one]
- solubility at 72 h ([1]; in CAPMUL® MCM): 28400 ± 1920 µg/mL (≈ 89 mM)
- solubility at 72 h ([1]; in isopropyl myristate): 8880 ± 170 µg/mL (≈ 27.9 mM)
- solubility at 72 h ([1]; in oleic acid): 17800 ± 3970 µg/mL (≈ 55.9 mM)
- Viability percent range ([2]; HaCaT, Allo 0.001-10 μM): 84.16-102.70%
- Viability compared to the control group ([2]; stated for the tested cell lines (HaCaT, TR 146, RPMI 2650), control without Allo): No significant decrease in viability
- Viability percent range [3]: 93.89-112.44%
- Viability percent range [4]: 107.32-113.60%
- solubility at 24 h ([5]; PBS (pH 7.4) containing 10% (w/v) HβCD): 3450 ± 30 µg/mL (≈ 10.8 mM)
- solubility at 24 h ([5]; PBS (pH 7.4) containing 20% (v/v) IPA and 25% (v/v) CREMOPHOR EL®): 3350 ± 120 µg/mL (≈ 10.5 mM)
- solubility at 24 h ([5]; PBS (pH 7.4) containing 30% (v/v) CREMOPHOR EL®): 1990 ± 170 µg/mL (≈ 6.25 mM)
- solubility at 24 h ([5]; PBS (pH 7.4) containing 40% (v/v) IPA): 1130 ± 130 µg/mL (≈ 3.55 mM)
